Test results: PubChem BioAssay (NCI)
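Grown in 96-well plates, cells were treated for 48 hours with each compound at five concentrations. Insufficient inhibition: endpoint recorded as highest concentration tested. GI50: concentration for 50% inhibition of growth. The concentration for full growth arrest is given as TGI.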

Assays:
Experiment in all cases: NCI tumour cell line growth inhibition, 48 h
786-0 renal = test system: 786-0 renal
A549 NSCLC = test system: A549 NSCLC
BT-549 breast = test system: BT-549 breast
CAKI-1 renal = test system: CAKI-1 renal
CCRF-CEM leukemia = test system: CCRF-CEM leukemia
COLO 205 colon = test system: COLO 205 colon
DU-145 prostate = test system: DU-145 prostate
EKVX NSCLC = test system: EKVX NSCLC
HCC-2998 colon = test system: HCC-2998 colon
HCT-116 colon = test system: HCT-116 colon
HCT-15 colon = test system: HCT-15 colon
HL-60(TB) leukemia = test system: HL-60(TB) leukemia
HOP-62 NSCLC = test system: HOP-62 NSCLC
HS 578T breast = test system: HS 578T breast
HT29 colon = test system: HT29 colon
IGROV1 ovarian = test system: IGROV1 ovarian
K-562 leukemia = test system: K-562 leukemia
KM12 colon = test system: KM12 colon
LOX IMVI melanoma = test system: LOX IMVI melanoma
M14 melanoma = test system: M14 melanoma
MALME-3M melanoma = test system: MALME-3M melanoma
MCF7 breast = test system: MCF7 breast
MDA-MB-231 breast = test system: MDA-MB-231 breast
MDA-MB-435 = test system: MDA-MB-435
MOLT-4 leukemia = test system: MOLT-4 leukemia
NCI-H226 lung = test system: NCI-H226 lung
NCI-H23 lung = test system: NCI-H23 lung
NCI-H460 lung = test system: NCI-H460 lung
NCI-H522 lung = test system: NCI-H522 lung
NCI/ADR-RES ovarian = test system: NCI/ADR-RES ovarian
OVCAR-3 ovarian = test system: OVCAR-3 ovarian
OVCAR-4 ovarian = test system: OVCAR-4 ovarian
OVCAR-8 ovarian = test system: OVCAR-8 ovarian
PC-3 prostate = test system: PC-3 prostate
RPMI-8226 leukemia = test system: RPMI-8226 leukemia
RXF 393 renal = test system: RXF 393 renal
SF-268 CNS = test system: SF-268 CNS
SF-295 CNS = test system: SF-295 CNS
SF-539 CNS = test system: SF-539 CNS
SK-MEL-2 melanoma = test system: SK-MEL-2 melanoma
SK-MEL-28 melanoma = test system: SK-MEL-28 melanoma
SK-MEL-5 melanoma = test system: SK-MEL-5 melanoma
SK-OV-3 ovarian = test system: SK-OV-3 ovarian
SN12C renal = test system: SN12C renal
SNB-19 CNS = test system: SNB-19 CNS
SNB-75 CNS = test system: SNB-75 CNS
SR leukemia = test system: SR leukemia
SW-620 colon = test system: SW-620 colon
T-47D breast = test system: T-47D breast
TK-10 renal = test system: TK-10 renal
U251 CNS = test system: U251 CNS
UACC-257 melanoma = test system: UACC-257 melanoma
UACC-62 melanoma = test system: UACC-62 melanoma
UO-31 renal = test system: UO-31 renal
A498 renal = test system: A498 renal
ACHN renal = test system: ACHN renal
HOP-92 NSCLC = test system: HOP-92 NSCLC
OVCAR-5 ovarian = test system: OVCAR-5 ovarian

CCN(CC)CCN(C(=Nc1ccccc1)N1CCOCC1)c1ccccc1
TGI (786-0 renal): > 100 µM
TGI (A549 NSCLC): > 100 µM
TGI (BT-549 breast): > 100 µM
TGI (CAKI-1 renal): > 100 µM
TGI (CCRF-CEM leukemia): > 100 µM
TGI (COLO 205 colon): > 100000 nM
TGI (DU-145 prostate): > 100 µM
TGI (EKVX NSCLC): > 100 µM
TGI (HCC-2998 colon): > 100 µM
TGI (HCT-116 colon): 89.8 µM
TGI (HCT-15 colon): > 100 µM
TGI (HL-60(TB) leukemia): > 100 µM
TGI (HOP-62 NSCLC): > 100 µM
TGI (HS 578T breast): > 100 µM
TGI (HT29 colon): > 100 µM
TGI (IGROV1 ovarian): > 100 µM
TGI (K-562 leukemia): > 100 µM
TGI (KM12 colon): > 100 µM
TGI (LOX IMVI melanoma): > 100 µM
TGI (M14 melanoma): > 100000 nM
TGI (MALME-3M melanoma): > 100 µM
TGI (MCF7 breast): > 100 µM
TGI (MDA-MB-231 breast): > 100 µM
TGI (MDA-MB-435): > 100 µM
TGI (MOLT-4 leukemia): > 100 µM
TGI (NCI-H226 lung): > 100 µM
TGI (NCI-H23 lung): > 100 µM
TGI (NCI-H460 lung): > 100 µM
TGI (NCI-H522 lung): > 100000 nM
TGI (NCI/ADR-RES ovarian): > 100 µM
TGI (OVCAR-3 ovarian): > 100 µM
TGI (OVCAR-4 ovarian): > 100 µM
TGI (OVCAR-8 ovarian): > 100 µM
TGI (PC-3 prostate): > 100 µM
TGI (RPMI-8226 leukemia): > 100 µM
TGI (RXF 393 renal): > 100 µM
TGI (SF-268 CNS): > 100 µM
TGI (SF-295 CNS): > 100 µM
TGI (SF-539 CNS): > 100000 nM
TGI (SK-MEL-2 melanoma): > 100 µM
TGI (SK-MEL-28 melanoma): > 100 µM
TGI (SK-MEL-5 melanoma): > 100000 nM
TGI (SK-OV-3 ovarian): > 100 µM
TGI (SN12C renal): > 100 µM
TGI (SNB-19 CNS): > 100 µM
TGI (SNB-75 CNS): > 100 µM
TGI (SR leukemia): > 100 µM
TGI (SW-620 colon): > 100 µM
TGI (T-47D breast): > 100 µM
TGI (TK-10 renal): > 100 µM
TGI (U251 CNS): > 100 µM
TGI (UACC-257 melanoma): > 100 µM
TGI (UACC-62 melanoma): > 100 µM
TGI (UO-31 renal): > 100 µM

C=C1NC(=O)C(C(C)CC)NC(=O)C2CSCC(NC(=O)CCC(=O)O)C(=O)NC(Cc3ccccc3)C(=O)NC(C)C(=O)NC(CC(C)CC)C(=O)NC(C(=O)NC(Cc3ccccc3)C(=O)N3CCCC3C(=O)N2)C(C)OC(=O)C(CO)NC(=O)C(C(O)COC)N(C)C(=O)C(C(C)C)NC(=O)C(CC(C)CC)NC1=O (stereo unspecified)
GI50 (786-0 renal): 35.8 nM
TGI (786-0 renal): > 6 µM
GI50 (A498 renal): 6.67 nM
TGI (A498 renal): 512 nM
GI50 (A549 NSCLC): 26.8 nM
TGI (A549 NSCLC): > 6 µM
GI50 (ACHN renal): 55.3 nM
TGI (ACHN renal): > 6 µM
GI50 (BT-549 breast): 72.8 nM
TGI (BT-549 breast): > 6 µM
GI50 (CAKI-1 renal): 24.6 nM
TGI (CAKI-1 renal): > 6 µM
GI50 (CCRF-CEM leukemia): 13.7 nM
TGI (CCRF-CEM leukemia): > 6 µM
GI50 (COLO 205 colon): 12.9 nM
TGI (COLO 205 colon): 55.7 nM
GI50 (DU-145 prostate): 23.8 nM
TGI (DU-145 prostate): > 6 µM
GI50 (EKVX NSCLC): 46 nM
TGI (EKVX NSCLC): > 6 µM
GI50 (HCC-2998 colon): 37.7 nM
TGI (HCC-2998 colon): > 6 µM
GI50 (HCT-116 colon): 13.7 nM
TGI (HCT-116 colon): > 6 µM
GI50 (HCT-15 colon): 18.3 nM
TGI (HCT-15 colon): > 6 µM
GI50 (HL-60(TB) leukemia): 21.1 nM
GI50 (HOP-62 NSCLC): 19.8 nM
TGI (HOP-62 NSCLC): > 6 µM
GI50 (HOP-92 NSCLC): 66.8 nM
TGI (HOP-92 NSCLC): > 4.93 µM
GI50 (HS 578T breast): 11.5 nM
TGI (HS 578T breast): > 6 µM
GI50 (HT29 colon): 16.5 nM
TGI (HT29 colon): > 6 µM
GI50 (IGROV1 ovarian): 112 nM
TGI (IGROV1 ovarian): > 6 µM
GI50 (K-562 leukemia): 12.4 nM
TGI (K-562 leukemia): > 6 µM
GI50 (KM12 colon): 5.29 nM
TGI (KM12 colon): > 6 µM
GI50 (LOX IMVI melanoma): 30.4 nM
TGI (LOX IMVI melanoma): > 6 µM
GI50 (M14 melanoma): 8.78 nM
TGI (M14 melanoma): 39.1 nM
GI50 (MALME-3M melanoma): 32.6 nM
TGI (MALME-3M melanoma): > 6 µM
GI50 (MCF7 breast): 12.4 nM
TGI (MCF7 breast): > 6 µM
GI50 (MDA-MB-231 breast): 20.1 nM
TGI (MDA-MB-231 breast): 3.24 µM
GI50 (MOLT-4 leukemia): 55.2 nM
TGI (MOLT-4 leukemia): > 6 µM
GI50 (NCI-H226 lung): 117 nM
TGI (NCI-H226 lung): > 6 µM
GI50 (NCI-H23 lung): 100 nM
TGI (NCI-H23 lung): > 6 µM
GI50 (NCI-H460 lung): 4.39 nM
TGI (NCI-H460 lung): > 6 µM
GI50 (NCI-H522 lung): 4.11 nM
TGI (NCI-H522 lung): 359 nM
GI50 (NCI/ADR-RES ovarian): 30.4 nM
TGI (NCI/ADR-RES ovarian): > 6 µM
GI50 (OVCAR-3 ovarian): 11.8 nM
GI50 (OVCAR-4 ovarian): 339 nM
TGI (OVCAR-4 ovarian): > 6 µM
GI50 (OVCAR-5 ovarian): 32.7 nM
TGI (OVCAR-5 ovarian): > 6 µM
GI50 (OVCAR-8 ovarian): 67.8 nM
TGI (OVCAR-8 ovarian): > 6 µM
GI50 (PC-3 prostate): 26.5 nM
TGI (PC-3 prostate): > 6 µM
GI50 (RPMI-8226 leukemia): 21.7 nM
TGI (RPMI-8226 leukemia): > 6 µM
GI50 (RXF 393 renal): 13.6 nM
TGI (RXF 393 renal): > 6 µM
GI50 (SF-268 CNS): 34.2 nM
TGI (SF-268 CNS): > 6 µM
GI50 (SF-295 CNS): 5.94 nM
TGI (SF-295 CNS): > 6 µM
GI50 (SF-539 CNS): 8.68 nM
TGI (SF-539 CNS): 279 nM
GI50 (SK-MEL-2 melanoma): 4.85 nM
TGI (SK-MEL-2 melanoma): > 6 µM
GI50 (SK-MEL-28 melanoma): > 6 µM
TGI (SK-MEL-28 melanoma): > 6 µM
GI50 (SK-MEL-5 melanoma): 6.37 nM
TGI (SK-MEL-5 melanoma): 427 nM
GI50 (SK-OV-3 ovarian): 24.3 nM
TGI (SK-OV-3 ovarian): > 6 µM
GI50 (SN12C renal): 70.7 nM
TGI (SN12C renal): > 6 µM
GI50 (SNB-19 CNS): 25.5 nM
TGI (SNB-19 CNS): > 6 µM
GI50 (SNB-75 CNS): 4.8 nM
TGI (SNB-75 CNS): > 6 µM
GI50 (SR leukemia): 25.9 nM
TGI (SR leukemia): > 6 µM
GI50 (SW-620 colon): 17.5 nM
TGI (SW-620 colon): > 6 µM
GI50 (T-47D breast): 24.2 nM
TGI (T-47D breast): > 6 µM
GI50 (TK-10 renal): 950 nM
TGI (TK-10 renal): > 6 µM
GI50 (U251 CNS): 10.1 nM
TGI (U251 CNS): > 6 µM
GI50 (UACC-257 melanoma): > 6 µM
TGI (UACC-257 melanoma): > 6 µM
GI50 (UACC-62 melanoma): 3.11 nM
TGI (UACC-62 melanoma): > 6 µM
GI50 (UO-31 renal): 567 nM
TGI (UO-31 renal): > 6 µM
